Common to all, as to format: physicochemical
Data set [1] can be described thus: UV spectrum (λmax) of the isolated compound. From the text: In other embodiments, the present invention provides methods and techniques for determining the UV-absorbing capacity of the compounds as defined herein. The UV-absorbing properties of the compounds defined herein can be determined by spectrophotometer according to techniques and methods well known in the art. For example, ultraviolet-visible spectroscopy or ultraviolet-visible spectrophotometry (UV-Vis or UV/Vis) may be used to calculate the wavelength of maximal absorption (λmax) of the compound.

Data set [2] can be described thus: UVA/UVB absorption of compound films on glass slides, with and without 20 hours ageing under UV (Xenon instrument). The following applies: for Tested compound UVA % / Tested compound UVB %: absorption A = (Tslide−Tslide+sample)/Tslide×100; for Plate + tested compound UVA % / Plate + tested compound UVB %: transmission T (%). Here is the method: Compounds IE1, IF1, IA2, IE4, IA1, IE2, ID2 and ID3 were evaluated for their UV absorption properties. Samples were prepared as follows: 20 mg of each of the compounds were dissolved into 1 ml of methanol to yield 20 g/L solutions. The solutions were then applied onto two glass slides each. For each compound, one of the slides was aged for 20 hours under UV (Xenon instrument). Samples were then analyzed using a UVA-UVB spectrophotometer in transmission T (%) mode and compared to the non-aged slides. Absorption (A) was calculated using the following formula: Asample=(Tslide−Tslide+sample)/Tslide×100

Data set [3] in a line: In vitro UV protection performance (SPF in vitro, UVAPF, Critical Wavelength) by the Colipa UVA in vitro Method on PMMA plates. Particulars: for Critical Wavelength λc value: PMMA plate, after UV exposure, 90% of the absorbance integral 290 to 400 nm, >= 370 nm = broad-spectrum; for protection against UVA rays (UVAPF in vitro), in words: UVAPF in vitro measurements; for UVAPF: thin film 0.75 mg/cm^2 on PMMA plate, after UV irradiation (pre-irradiation 800 J/m^2-eff); for SPF in vitro: thin film 0.75 mg/cm^2 on roughened PMMA plate, absorbance before UV exposure. As to the method: The following compounds were evaluated by an in vitro study for the Sun Protection Factor (SPF) in vitro, the UVA Protection Factor (UVAPF) and the Critical Wavelength value using the Colipa UVA in vitro Method.
For determining the SPF in vitro value, the protection performance of the compounds against erythemally-effective UV radiation, largely confined to the UVB (290-320 nm) and short-wavelength UVA (320-340) region was calculated from the measured in vitro transmittance. The in vitro UVAPF, the UVA protection (320-400 nm) was calculated from the measured in vitro transmittance after irradiation. The Critical Wavelength Value was defined as the wavelength at which the integral of the spectral absorbance curve reached 90% of the integral over the UV spectrum from 290 to 400 nm. It has been settled that this value must be equal or over 370 nm so as to classify the product as broad-spectrum. The study consisted in a comparative assay of non-treated plates against plates treated with each of the compounds and was based on the evaluation of UV-transmittance through a thin film of sunscreen sample spread on a roughened substrate, before an after exposure to a controlled dose of UV radiation from a UV source. A Kontron 933 spectrophotomer equipped with a UV source, an integrating sphere and a monochromatic light able to deliver a flow of energy between 290 and 400 nm was used. The transmittance values were measured at 1 nm intervals. A 10-4 precision laboratory balance was used to control deposited product weight. The irradiation was provided by Sunset Atlas CPS+ with standard filter. Temperature regulation of the equipment was done in the range of 25-35° C. A pre-irradiation dose of 4 times 200 J/m^2-eff (800 J/m^2-eff) was delivered. The substrate was the material to which the sunscreen product was applied. Polymethylmethacrylate (PMMA) plates were used and were roughened on one side to a three-dimensional surface topography of 5 micrometers. Each compound was weighted and applied evenly to the PMMA plate with a 2-phase spreading to achieve a 0.75 mg/cm^2 weight/surface ratio. Spreading was performed with a light spreading move for approximately 30 seconds followed by spreading with greater pressure for approximately 30 seconds. The resulting sample was left to equilibrate for 15 minutes in the dark at room temperature to ensure a self-leveling if the formula. To account for lack of photostability, a pre-irradiation was necessary. The pre-irradiation dose was 4 minimal erythema dose (MEDs), equivalent to 800 J/m^2-eff. Five measurements of spectral irradiance transmitted for each wavelength through the PMMA plate covered with the sunscreen product were obtained after pre-irradiation of the sunscreen product [P1( ), P2( ), P3( ), P4( ) and P5( )]. For each compound, mean absorbance values were determined from at least three individual PMMA plates. To validate the accuracy of the results, a control product with an established SPF of 18-20, Lot 11T0313 was tested simultaneously with the compounds. SPF in vitro was calculated for each plate using the following equation (Colipa 2011):
[formula] Where: • E( )=Erythema action spectrum (CEI-1987) • I( )=Spectral irradiance of the UV source • A0( )=Mean monochromatic absorbance measurements per plate of the test compound layer before UV exposure, at each wavelength • d=Wavelength step (1 nm) Calculation of the UVAPF for Each Plate after UV Irradiation (Colipa 2011)
[formula] Where: • P( )=PPD action spectrum • I( )=Spectral irradiance of the UV source • A( )=Mean monochromatic absorbance measurements per plate of the test compound layer after UV exposure, at each wavelength • C=Coefficient of adjustment • d=Wavelength step (1 nm) Calculation of the Critical Wavelength (FDA 2011)
[formula] Where: • A( )=Mean monochromatic absorbance measurements per plate of the compound layer after UV exposure, at each wavelength • d=Wavelength step (1 nm) […]

The mark [4] stands for this setting: 20 g/L methanol solution on glass slide, no ageing.
Where [5] appears, read: ageing for 20 hours under UV (Xenon instrument).

Structures are written as SMILES.

Take `COc1ccc(/N=C2/C=C(NCC(=O)O)CCC2)cc1` [(E)-2-((3-((4-methoxyphenyl)imino)cyclohex-1-en-1-yl)amino)acetic acid]: the “UV: λmax” value in data set [1] (MeOH/water with both 0.1% formic acid) is listed as roughly 318 nm.

With `COc1ccc(/N=C2/C=C(Nc3ccc(OC)cc3)CC(C)(C)C2)cc1` [(E)-N,N′-(5,5-dimethylcyclohex-1-ene-1-yl-3-ylidene)bis(4-methoxyaniline)], in data set [1] (MeOH/water), the “UV: λmax” value is given as roughly 345 nm.

On to `COc1ccc(/N=C2\CC(C)(C)CC3=C2SCC(C(=O)O)N3)cc1` (stereo not shown) [IA1], for which, in data set [2] (ageing for 20 hours under UV), the “Tested compound UVA %” value is reported as 95.1% and the “Tested compound UVB %” value stood at 98.6%. Besides, in data set [2] (no ageing), the “Tested compound UVA %” value came to 98.9% and the “Tested compound UVB %” value was found to be 95.8%. Further, in data set [2] (setting [4]), the “Plate + tested compound UVA %” value amounted to 0.99% and the “Plate + tested compound UVB %” value worked out at 1.88%. Further, in data set [2] (setting [5]), the “Plate + tested compound UVA %” value was 4.33% and the “Plate + tested compound UVB %” value came out at 0.64%. Besides, in data set [3], the “Critical Wavelength λc value” was determined as 390 nm; the “protection against UVA rays (UVAPF in vitro), in words” value (from here on “protection against UVA rays”) was “good protection against UVA rays”; the UVAPF was 8.7; the SPF in vitro is 2.4.

Consider `COc1ccc(/N=C2/C=C(NCC(=O)O)CC(C)(C)C2)cc1` [ID2], for which, in data set [2] (ageing for 20 hours under UV), the “Tested compound UVA %” value was 98.9% and the “Tested compound UVB %” value stood at 99.0%. Besides, in data set [2] (no ageing), the “Tested compound UVA %” value is given as 99.5% and the “Tested compound UVB %” value was 99.2%. Moreover, in data set [2] (setting [4]), the “Plate + tested compound UVA %” value is recorded as 0.44% and the “Plate + tested compound UVB %” value was 0.34%. In data set [2] (setting [5]), the “Plate + tested compound UVA %” value was 1.00% and the “Plate + tested compound UVB %” value came to 0.46%.

As to `COc1ccc(/N=C2/C=C(NCC(=O)O)CCC2)cc1` [ID3], in data set [2] (ageing for 20 hours under UV), the “Tested compound UVA %” value is given as 98.6% and the “Tested compound UVB %” value is 98.6%. Moreover, in data set [2] (no ageing), the “Tested compound UVA %” value was found to be 99.5% and the “Tested compound UVB %” value is listed as 99.3%. Also, in data set [2] (setting [4]), the “Plate + tested compound UVA %” value was 0.47% and the “Plate + tested compound UVB %” value turned out to be 0.33%. In data set [2] (setting [5]), the “Plate + tested compound UVA %” value amounted to 1.28% and the “Plate + tested compound UVB %” value came out at 0.62%.

Consider `CC1(C)CC2=C(SCC(C(=O)O)N2)/C(=N/c2ccc(C(=O)NC(C)(C)C)cc2)C1` (stereo not shown) [IE1], for which, in data set [2] (ageing for 20 hours under UV), the “Tested compound UVA %” value is 98.2% and the “Tested compound UVB %” value came to 97.7%. Further, in data set [2] (no ageing), the “Tested compound UVA %” value was 98.9% and the “Tested compound UVB %” value worked out at 98.4%. In data set [2] (setting [4]), the “Plate + tested compound UVA %” value stood at 1.00% and the “Plate + tested compound UVB %” value amounted to 0.73%. Besides, in data set [2] (setting [5]), the “Plate + tested compound UVA %” value was 1.63% and the “Plate + tested compound UVB %” value is listed as 1.02%. Also, in data set [3], the “Critical Wavelength λc value” was 391 nm; the “protection against UVA rays” value is “good protection against UVA rays”; the UVAPF was 13.5; the SPF in vitro amounted to 3.4.

For the molecule `CC1(C)CC2=C(SCC(C(=O)O)N2)/C(=N/c2ccccc2)C1` (stereo not shown) [IE2, (E)-6,6-dimethyl-8-(phenylimino)-3,4,5,6,7,8-hexahydro-2H-benzo[b][1,4]thiazine-3-carboxylic acid], the “Tested compound UVA %” value turned out to be 95.0% in data set [2] (ageing for 20 hours under UV) and 96.1% in data set [2] (no ageing). Further, the “Tested compound UVB %” value in data set [2] (ageing for 20 hours under UV) is 95.6%; in data set [2] (no ageing), 95.3%. Moreover, the “Plate + tested compound UVA %” value in data set [2] (setting [4]) was found to be 3.51%; in data set [2] (setting [5]) it was 4.43%. Further, the “Plate + tested compound UVB %” value in data set [2] (setting [4]) is listed as 2.12%; in data set [2] (setting [5]), 1.97%.

`CC1(C)CC2=C(SCC(C(=O)O)N2)/C(=N/c2ccc(F)cc2)C1` (stereo not shown) [IE4]: in data set [2] (ageing for 20 hours under UV), the “Tested compound UVA %” value was 98.4% and the “Tested compound UVB %” value came to 98.2%. Also, in data set [2] (no ageing), the “Tested compound UVA %” value turned out to be 99.5% and the “Tested compound UVB %” value was 99.0%. For the same molecule, in data set [2] (setting [4]), the “Plate + tested compound UVA %” value is 0.49% and the “Plate + tested compound UVB %” value came to 0.46%. In data set [2] (setting [5]), the “Plate + tested compound UVA %” value worked out at 1.46% and the “Plate + tested compound UVB %” value stood at 0.81%. In data set [3], the “Critical Wavelength λc value” stood at 390 nm; the “protection against UVA rays” value is reported as “good protection against UVA rays”; the UVAPF turned out to be 8.6; the SPF in vitro is listed as 4.5.

As for `COc1ccc(/N=C2\CC(C)(C)CC3=C2SCC(C(=O)O)N3)cc1OC` (stereo not shown) [IF1], in data set [2] (ageing for 20 hours under UV), the “Tested compound UVA %” value turned out to be 99.6% and the “Tested compound UVB %” value is recorded as 99.1%. Also, in data set [2] (no ageing), the “Tested compound UVA %” value came to 99.7% and the “Tested compound UVB %” value worked out at 99.3%. Besides, in data set [2] (setting [4]), the “Plate + tested compound UVA %” value was 0.24% and the “Plate + tested compound UVB %” value amounted to 0.31%. In data set [2] (setting [5]), the “Plate + tested compound UVA %” value was 0.37% and the “Plate + tested compound UVB %” value is given as 0.39%. In data set [3], the “Critical Wavelength λc value” is listed as 390 nm, the UVAPF is 4.1 and the SPF in vitro is given as 2.1.
